For assay [1], the system named is Mycobacterium tuberculosis. The conditions noted are these: cited from earlier work.
Assay [2] has as its target T1, E. coli GyrA^S83L gyrase (Escherichia coli, UniProt P0AES4, S83L). The assay is classed as biochemical.
The target of assay [3] is T2, E. coli ParC^S80L topoisomerase IV (Escherichia coli, UniProt P0AFI2, S80L). The assay is classed as biochemical.
For assay [4], the system named is E. coli. The conditions noted are these: cited from earlier work.
Assay [5] deals with T3, B. anthracis wild-type topoisomerase IV (Bacillus anthracis, UniProt A0A6H3AG07). The format is biochemical.
Assay [6] concerns the target T1, E. coli GyrA^S83L gyrase. The assay is classed as biochemical. This is another data set of the same source.
The target of assay [7] is T4, E. coli wild-type gyrase (Escherichia coli, UniProt P0AES4). The format is biochemical. The settings on record: read-out: IC50, inhibition of DNA supercoiling.
Assay [8] concerns the target T5, E. coli wild-type topoisomerase IV (Escherichia coli, UniProt P0AFI2). The assay is classed as biochemical. The settings on record: read-out: IC50, inhibition of DNA decatenation.
The target of assay [9] is T4, E. coli wild-type gyrase. The format is biochemical.
Assay [10] deals with T6, B. anthracis wild-type gyrase (Bacillus anthracis, UniProt A0A6H3A7B1). The assay is classed as biochemical. The settings on record: read-out: IC50, inhibition of DNA supercoiling.
Assay [11] concerns the target T7, M. tuberculosis wild-type gyrase (Mycobacterium tuberculosis, UniProt P9WG47). The format is biochemical.
Assay [12] deals with T3, B. anthracis wild-type topoisomerase IV. The assay is classed as biochemical. The settings on record: read-out: IC50, inhibition of DNA decatenation.
Assay [13] has as its target T6, B. anthracis wild-type gyrase. The format is biochemical.
Assay [14] concerns the target T5, E. coli wild-type topoisomerase IV. The assay is classed as biochemical.
The target of assay [15] is T2, E. coli ParC^S80L topoisomerase IV. The format is biochemical. The conditions noted are these: read-out: IC50, inhibition of DNA decatenation.
The target in assay [16] is T7, M. tuberculosis wild-type gyrase. The assay is classed as biochemical. This is another data set of the same source.
The subject of assay [17] is gyrase. The conditions noted are these: cited from earlier work.
Setting [18] is: read-out: EC50, enhancement of single-stranded DNA cleavage.

The term EC50 denotes the midpoint of the concentration-response curve. A word on the IC50: it is the concentration needed to halve the response being measured. As for `CC[C@H](C)n1cc(C)c2c(C(=O)NCc3c(C)cc(C)[nH]c3=O)cc(-c3ccc(N4CCNCC4)nc3)cc21` [GSK126], the “activity against the bacterium in a screen” value in [1] was “moderate activity”. Moreover, the “enhancement of DNA cleavage” value in [2] is given as “no ability to enhance DNA cleavage”. Moreover, the “induction of DNA cleavage” value in assay [3] is “ineffective at inducing DNA cleavage”. In addition, in [4], the “Minimal Inhibitory Concentration” value is 0.26 µM. The “enhancement of double-stranded DNA breaks” value in assay [5] and in [14] was “no enhancement of double-stranded breaks was observed” each time. In addition, the EC50 in assay [5] (setting [18]) and in [14] (setting [18]) was below 500 nM throughout. In [6], the “fold more potent in supercoiling inhibition than against wild-type enzyme” value is listed as 5–10 fold. The IC50 was around 2000 nM in assay [7]; around 1400 nM in [8]; around 400 nM in assay [10]; around 75000 nM in assay [11] (read-out: IC50, inhibition of DNA supercoiling); around 2300 nM in assay [12]; around 1400 nM in assay [15]. Further, the “induction of double-stranded DNA breaks” value in [9], in [13] and in assay [16] was “no ability to induce double-stranded breaks” in each case. For the same compound, the “levels of single-stranded DNA cleavage in the presence of ATP vs absence” value in assay [9] is “considerably lower”. In addition, the “maximal decrease of supercoiling activity” value in [11] was found to be 60%. In [14], the “ability to induce DNA cleavage in the presence of ATP” value is “marginal”.
`O=c1ccc2ncc(=O)n3c2n1C[C@H]3CN1CCC(NCc2cc3c(cn2)OCCC3)CC1` [gepotidacin]: in assay [17], the “type of gyrase-mediated DNA breaks induced” value is on record as “induces only gyrase-mediated single-stranded DNA breaks”.
In the case of `COc1ccc2ncc(C#N)c(CCN3CCC(NCc4cc5c(cn4)OCS5)CC3)c2c1` [GSK299423], the “type of gyrase-mediated DNA breaks induced” value in [17] is recorded as “induces only gyrase-mediated single-stranded DNA breaks”.

The values are drawn from paper PMC7450530 (Biochemistry, 2019).
